Measurements: US11584755B2 (IDEAYA BIOSCIENCES, INC., priority 2017, dated 2023)

Molecular target: hFEN1 (Homo sapiens (Human), UniProt P39748)
Assay: Enzymatic IC50 assay, FAM-labeled DNA oligomer substrate, fluorescence intensity (FEN1)
Format: biochemical
Conditions: hFEN1 70 pM, substrate 100 nM, reaction time 20 minutes, 23° C.
Protocol: FEN1, EXO1 or XPG enzyme was incubated with compound or vehicle (DMSO) and the FAM-labeled DNA oligomer substrate in a microtiter plate. The stop buffer contains EDTA to stop the enzymatic reaction. The plate is read for fluorescence intensity. The high control (DMSO) with high fluorescence intensity represents no inhibition of enzymatic reaction while the low control (10 μM) with low fluorescence intensity represents full inhibition of enzymatic reaction.
• FEN1 • hFEN1: 70 pM • Substrate: 100 nM • Reaction time: 20 minutes • EXO1 • hEXO1: 6 nM, Isoforml • Substrate: 30 nM • Reaction time: 60 minutes • XPG • hXPG: 100 nM • Substrate: 100 nM • Reaction time: 120 minutes
Annealing Buffer: 50 mM Tris-HCl, 50 mM NaCl, 1 mM DTT Assay buffer: 50 mM Tris-HCl pH 8.0, 10 mM MgCl2, 0.01% BSA, 1 mM DTT Stop buffer: 50 mM EDTA in assay buffer Temperature: 23° C. Total volume: 40 μl Controls: • 0% inhibition control: DMSO • 100% inhibition control: 10 μM (final) 5-chloro-3-hydroxy-1,3-dihydroquinazoline-2,4-dione Enzyme Reaction and Detection: • 1. Prepare 25 μM intermediate stock of the substrate by diluting SEQ ID NO:1, SEQ ID NO:2, and SEQ ID NO:3 in annealing buffer, in a PCR tube. • 2. Place the PCR tube on a heat block, heat at 95° C. for 3 minutes, then drop in 0.2° C. increments over 2 minutes, stopping at 25° C. • 3. Remove the tube and let the tube cool at room temperature. • 4. Transfer 10 μL of 3× final concentration test compounds or DMSO to the appropriate wells of a microtiter plate. • 5. Transfer 10 μL of 3× final concentration enzyme in assay buffer or assay buffer alone to the appropriate wells. • 6. Incubate the plate at room temperature for 15 minutes. • 7. Transfer 10 μL of 3× substrate in assay buffer to all the test wells. • 8. Incubate the plate at room temperature for prescribed reaction time. • 9. Centrifuge the plate at 1000 rpm for 1 minute. • 10. Transfer 10 μL of stop buffer to all the test wells. • 11. Centrifuge the plate at 1000 rpm for 1 minute. • 12. Read the plate on a plate reader.

hFEN1, sequence (P39748 whole entry): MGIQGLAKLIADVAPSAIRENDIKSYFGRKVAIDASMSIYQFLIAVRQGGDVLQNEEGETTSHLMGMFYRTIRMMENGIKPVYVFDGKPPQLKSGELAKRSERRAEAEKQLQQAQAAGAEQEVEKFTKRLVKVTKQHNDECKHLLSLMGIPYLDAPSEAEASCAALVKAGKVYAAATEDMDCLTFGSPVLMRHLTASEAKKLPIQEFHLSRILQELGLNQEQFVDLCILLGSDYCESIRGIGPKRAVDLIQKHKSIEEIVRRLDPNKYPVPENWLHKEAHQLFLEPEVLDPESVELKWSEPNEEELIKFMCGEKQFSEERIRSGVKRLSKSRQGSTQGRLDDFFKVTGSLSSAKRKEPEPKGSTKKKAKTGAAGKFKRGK

| SMILES | IC50 [nM] |
| --- | --- |
| O=C(O)c1c(O)c(=O)n(Cc2cncc(-c3ccccc3)c2)c2ccsc12 [Example 103, 6-hydroxy-5-oxo-4-[(5-phenylpyridin-3-yl)methyl]-4,5-dihydrothieno[3,2-b]pyridine-7-carboxylic acid] | 250 to 750 |
| Cn1nc(Cn2c(=O)c(O)c(C(=O)O)c3sccc32)c2ccccc21 [Example 51] | 2250 to 10000 |
| O=C(O)c1c(O)c(=O)n(Cc2ccc3[nH]c(=O)ccc3c2)c2ccsc12 [Example 17, 6-hydroxy-5-oxo-4-[(2-oxo-1H-quinolin-6-yl)methyl]thieno[3,2-b]pyridine-7-carboxylic acid] | 750 to 2250 |
| O=C(O)c1c(O)c(=O)n(CC2CCNCC2)c2ccsc12 [Example 10, 6-hydroxy-5-oxo-4-(4-piperidylmethyl)thieno[3,2-b]pyridine-7-carboxylic acid] | 2250 to 10000 |
| Cc1cc(Cn2c(=O)c(O)c(C(=O)O)c3sccc32)no1 [Example 82, 6-hydroxy-4-[(5-methylisoxazol-3-yl)methyl]-5-oxo-4,5-dihydrothieno[3,2-b]pyridine-7-carboxylic acid] | 750 to 2250 |
| O=C(O)c1c(O)c(=O)n(Cc2cccnc2)c2ccsc12 [Example 60, 6-hydroxy-5-oxo-4-(pyridin-3-ylmethyl)-4,5-dihydrothieno[3,2-b]pyridine-7-carboxylic acid] | 750 to 2250 |
| Cc1ncc(Cn2c(=O)c(O)c(C(=O)O)c3sccc32)o1 [Example 95, 6-hydroxy-4-[(2-methyloxazol-5-yl)methyl]-5-oxo-4,5-dihydrothieno[3,2-b]pyridine-7-carboxylic acid] | 250 to 750 |
| COc1ccc(Cn2c(=O)c(O)c(C(=O)O)c3sc(CC(C)C)cc32)cc1 [Example 157, 6-hydroxy-2-isobutyl-4-(4-methoxybenzyl)-5-oxo-4,5-dihydrothieno[3,2-b]pyridine-7-carboxylic acid] | 2250 to 10000 |
| O=C(O)c1c(O)c(=O)n(Cc2ccccc2F)c2ccsc12 [Example 68, 4-(2-fluorobenzyl)-6-hydroxy-5-oxo-4,5-dihydrothieno[3,2-b]pyridine-7-carboxylic acid] | 2250 to 10000 |
| CC(C)(C)OC(=O)N1CCCC(Cn2c(=O)c(O)c(C(=O)O)c3sccc32)C1 (stereo not shown) [Example 61, 4-{[1-(tert-butoxycarbonyl)piperidin-3-yl]methyl}-6-hydroxy-5-oxo-4,5-dihydrothieno[3,2-b]pyridine-7-carboxylic acid] | 2250 to 10000 |
| CC(C)(C)OC(=O)Nc1ccc(Cn2c(=O)c(O)c(C(=O)O)c3sccc32)cc1 [Example 15, 4-(4-((tert-butoxycarbonyl)amino)benzyl)-6-hydroxy-5-oxo-4,5-dihydrothieno[3,2-b]pyridine-7-carboxylic acid] | < 200 |
| COc1cccc(Cn2c(=O)c(O)c(C(=O)O)c3sccc32)c1 [Example 52, 6-hydroxy-4-(3-methoxybenzyl)-5-oxo-4,5-dihydrothieno[3,2-b]pyridine-7-carboxylic acid] | 250 to 750 |
| O=C(O)c1c(O)c(=O)n(Cc2cnn(Cc3cncs3)c2)c2ccsc12 [Example 123, 6-hydroxy-5-oxo-4-{[1-(thiazol-5-ylmethyl)-1H-pyrazol-4-yl]methyl}-4,5-dihydrothieno[3,2-b]pyridine-7-carboxylic acid] | < 200 |
| Nc1ccc(Cn2c(=O)c(O)c(C(=O)O)c3sccc32)cc1Cl [Example 73, 4-(4-amino-3-chlorobenzyl)-6-hydroxy-5-oxo-4,5-dihydrothieno[3,2-b]pyridine-7-carboxylic acid] | 250 to 750 |
| Cc1nnc(Cn2c(=O)c(O)c(C(=O)O)c3sccc32)s1 [Example 94, 6-hydroxy-4-[(5-methyl-1,3,4-thiadiazol-2-yl)methyl]-5-oxo-4,5-dihydrothieno[3,2-b]pyridine-7-carboxylic acid] | 250 to 750 |
| O=C(O)c1c(O)c(=O)n(Cc2cncc3ccccc23)c2ccsc12 [Example 104, 6-hydroxy-4-(isoquinolin-4-ylmethyl)-5-oxo-4,5-dihydrothieno[3,2-b]pyridine-7-carboxylic acid] | 2250 to 10000 |
| N#Cc1cccc(Cn2c(=O)c(O)c(C(=O)O)c3sccc32)c1 [Example 58, 4-(3-cyanobenzyl)-6-hydroxy-5-oxo-4,5-dihydrothieno[3,2-b]pyridine-7-carboxylic acid] | 2250 to 10000 |
| COc1cc(Cn2cc(Cn3c(=O)c(O)c(C(=O)O)c4sccc43)cn2)ccc1C#N [Example 26, 4-{[1-(4-cyano-3-methoxybenzyl)-1H-pyrazol-4-yl]methyl}-6-hydroxy-5-oxo-4,5-dihydrothieno[3,2-b]pyridine-7-carboxylic acid] | < 200 |
| O=C(O)c1c(O)c(=O)n(Cc2ccc(-c3ccccc3)nc2)c2ccsc12 [Example 147, 6-hydroxy-5-oxo-4-[(6-phenylpyridin-3-yl)methyl]-4,5-dihydrothieno[3,2-b]pyridine-7-carboxylic acid] | 250 to 750 |

Results, then the compound that gave them:

| IC50 [nM] | SMILES |
| --- | --- |
| 2250 to 10000 | O=C(O)c1c(O)c(=O)n(CC2CCOCC2)c2ccsc12 [Example 69, 6-hydroxy-5-oxo-4-[(tetrahydro-2H-pyran-4-yl)methyl]-4,5-dihydrothieno[3,2-b]pyridine-7-carboxylic acid] |
| < 200 | O=C(O)c1c(O)c(=O)n(CC2COc3ccccc3O2)c2ccsc12 (stereo not shown) [Example 13, 4-(2,3-dihydro-1,4-benzodioxin-3-ylmethyl)-6-hydroxy-5-oxo-thieno[3,2-b]pyridine-7-carboxylic acid] |
| 250 to 750 | COc1cc(-c2ccc(Cn3c(=O)c(O)c(C(=O)O)c4sccc43)cc2)ccn1 [Example 151, 6-hydroxy-4-(4-(2-methoxypyridin-4-yl)benzyl)-5-oxo-4,5-dihydrothieno[3,2-b]pyridine-7-carboxylic acid] |
| 2250 to 10000 | O=C(O)c1c(O)c(=O)n(CC2COCCO2)c2ccsc12 (stereo not shown) [Example 74, 4-((1,4-dioxan-2-yl)methyl)-6-hydroxy-5-oxo-4,5-dihydrothieno[3,2-b]pyridine-7-carboxylic acid] |
| < 200 | O=C(O)c1c(O)c(=O)n(Cc2cnn(Cc3cn4cccnc4n3)c2)c2ccsc12 [Example 139, 6-hydroxy-4-{[1-(imidazo[1,2-a]pyrimidin-2-ylmethyl)-1H-pyrazol-4-yl]methyl}-5-oxo-4,5-dihydrothieno[3,2-b]pyridine-7-carboxylic acid] |
| 250 to 750 | O=C(O)c1c(O)c(=O)n(Cc2ncn(-c3ccccc3)n2)c2ccsc12 [Example 20, 6-hydroxy-5-oxo-4-[(1-phenyl-1H-1,2,4-triazol-3-yl)methyl]-4,5-dihydrothieno[3,2-b]pyridine-7-carboxylic acid] |
| 250 to 750 | O=C(O)c1c(O)c(=O)n(Cc2cnn(-c3ccncc3)c2)c2ccsc12 [Example 112, 6-hydroxy-5-oxo-4-{[1-(pyridin-4-yl)-1H-pyrazol-4-yl]methyl}-4,5-dihydrothieno[3,2-b]pyridine-7-carboxylic acid] |
| < 200 | O=C(O)c1c(O)c(=O)n(Cc2cnn(-c3ccc([N+](=O)[O-])cc3)c2)c2ccsc12 [Example 21, 6-hydroxy-4-{[1-(4-nitrophenyl)-1H-pyrazol-4-yl]methyl}-5-oxo-4,5-dihydrothieno[3,2-b]pyridine-7-carboxylic acid] |
| 2250 to 10000 | CC(=O)Nc1ccccc1Cn1c(=O)c(O)c(C(=O)O)c2sccc21 [Example 39, 4-(2-acetamidobenzyl)-6-hydroxy-5-oxo-4,5-dihydrothieno[3,2-b]pyridine-7-carboxylic acid] |
